The record followed here is the Kinase Knowledgebase extract (Sharma et al. 2016).

The test system of assay [1] is EGFR (Human), P00533 [Assessment of Proliferation in EGFR DelE746_A750 Mutant Expressing HCC827 Cells].
Assay [2] concerns EGFR (Human), P00533 [T790M/L858R]. The note with it: nci-h1975.
The test system of assay [3] is EGFR (human), P00533 [WT]. The note with it: a431.
In assay [4] the target is EGFR (human), P00533 [WT].

EGFR (Human), P00533 [T790M/L858R], sequence (P00533 whole entry T790M/L858R, looked up): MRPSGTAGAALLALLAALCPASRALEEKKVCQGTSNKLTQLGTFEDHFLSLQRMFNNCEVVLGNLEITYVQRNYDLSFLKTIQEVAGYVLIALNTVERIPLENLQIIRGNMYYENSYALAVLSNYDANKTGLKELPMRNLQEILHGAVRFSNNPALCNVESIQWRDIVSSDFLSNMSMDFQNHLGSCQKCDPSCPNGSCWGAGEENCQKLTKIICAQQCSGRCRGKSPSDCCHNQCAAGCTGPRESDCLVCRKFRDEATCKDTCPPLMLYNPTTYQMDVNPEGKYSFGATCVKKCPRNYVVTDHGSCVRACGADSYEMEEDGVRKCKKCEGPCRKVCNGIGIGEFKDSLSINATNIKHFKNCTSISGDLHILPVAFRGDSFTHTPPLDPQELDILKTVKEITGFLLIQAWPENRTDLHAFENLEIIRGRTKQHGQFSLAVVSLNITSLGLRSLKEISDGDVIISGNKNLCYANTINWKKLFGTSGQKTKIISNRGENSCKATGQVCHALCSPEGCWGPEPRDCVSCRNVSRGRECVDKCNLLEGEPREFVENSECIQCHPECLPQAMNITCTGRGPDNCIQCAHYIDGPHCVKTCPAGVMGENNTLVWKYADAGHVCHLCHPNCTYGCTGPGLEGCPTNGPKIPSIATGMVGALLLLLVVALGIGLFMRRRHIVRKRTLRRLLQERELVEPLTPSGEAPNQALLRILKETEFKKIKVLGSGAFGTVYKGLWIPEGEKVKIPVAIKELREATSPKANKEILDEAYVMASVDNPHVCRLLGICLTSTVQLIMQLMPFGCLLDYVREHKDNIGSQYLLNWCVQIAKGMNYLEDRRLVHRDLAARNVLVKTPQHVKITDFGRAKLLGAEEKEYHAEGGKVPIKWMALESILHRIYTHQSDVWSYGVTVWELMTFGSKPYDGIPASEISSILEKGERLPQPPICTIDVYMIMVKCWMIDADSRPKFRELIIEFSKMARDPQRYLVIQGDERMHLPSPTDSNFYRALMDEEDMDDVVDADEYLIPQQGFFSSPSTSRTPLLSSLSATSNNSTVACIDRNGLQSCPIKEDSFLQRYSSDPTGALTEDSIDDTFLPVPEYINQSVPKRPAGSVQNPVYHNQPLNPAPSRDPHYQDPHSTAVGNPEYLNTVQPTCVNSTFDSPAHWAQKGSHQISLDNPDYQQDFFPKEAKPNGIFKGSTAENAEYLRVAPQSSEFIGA
EGFR (Human), P00533 [Assessment of Proliferation in EGFR DelE746_A750 Mutant Expressing HCC827 Cells], sequence (P00533 whole entry, looked up, stated change not applied): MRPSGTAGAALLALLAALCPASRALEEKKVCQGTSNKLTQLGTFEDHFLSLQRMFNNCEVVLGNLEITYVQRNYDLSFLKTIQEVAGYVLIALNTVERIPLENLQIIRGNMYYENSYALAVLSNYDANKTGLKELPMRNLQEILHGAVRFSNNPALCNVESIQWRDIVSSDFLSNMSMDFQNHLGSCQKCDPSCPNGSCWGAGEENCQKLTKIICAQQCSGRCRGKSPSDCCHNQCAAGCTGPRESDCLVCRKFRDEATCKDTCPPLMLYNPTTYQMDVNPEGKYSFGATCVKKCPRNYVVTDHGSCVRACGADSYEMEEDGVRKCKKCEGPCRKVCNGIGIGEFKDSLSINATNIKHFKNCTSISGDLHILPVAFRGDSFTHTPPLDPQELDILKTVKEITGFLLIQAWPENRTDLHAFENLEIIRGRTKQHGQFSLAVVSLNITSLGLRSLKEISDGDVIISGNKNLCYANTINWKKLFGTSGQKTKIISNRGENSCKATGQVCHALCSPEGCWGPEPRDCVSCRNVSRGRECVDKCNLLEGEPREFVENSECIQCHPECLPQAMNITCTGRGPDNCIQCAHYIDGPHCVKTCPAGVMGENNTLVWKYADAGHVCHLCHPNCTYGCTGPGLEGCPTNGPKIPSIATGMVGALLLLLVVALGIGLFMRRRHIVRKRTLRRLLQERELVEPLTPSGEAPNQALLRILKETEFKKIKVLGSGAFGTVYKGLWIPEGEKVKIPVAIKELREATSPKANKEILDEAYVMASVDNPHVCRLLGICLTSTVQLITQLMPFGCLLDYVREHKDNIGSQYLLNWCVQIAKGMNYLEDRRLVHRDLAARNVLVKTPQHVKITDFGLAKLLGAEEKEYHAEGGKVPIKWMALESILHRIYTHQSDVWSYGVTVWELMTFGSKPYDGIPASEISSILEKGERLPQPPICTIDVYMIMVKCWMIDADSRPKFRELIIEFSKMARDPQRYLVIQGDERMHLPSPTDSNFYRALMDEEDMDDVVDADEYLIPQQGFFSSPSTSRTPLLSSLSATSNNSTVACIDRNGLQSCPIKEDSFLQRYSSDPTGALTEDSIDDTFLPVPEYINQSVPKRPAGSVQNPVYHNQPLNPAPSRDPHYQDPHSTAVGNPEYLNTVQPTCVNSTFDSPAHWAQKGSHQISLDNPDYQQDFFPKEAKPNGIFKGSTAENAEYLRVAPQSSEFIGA
EGFR (human), P00533 [WT], sequence (P00533 whole entry, looked up): as the sequence (P00533 whole entry, looked up, stated change not applied) above

In the case of `C=CC(=O)Nc1cccc(Oc2nc(Nc3ccc(C(=O)NC4CCN(C(C)C)CC4)cc3)nc3ccsc23)c1`, the GI50 is at most 50 nM in assay [1], at most 50 nM in assay [2] and 100 to 1000 nM in assay [3].
Take `C=CC(=O)Nc1cccc(Oc2nc(Nc3ccc(N4CCN(C(C)C)CC4)cc3)nc3ccoc23)c1`: the figures for the GI50 in assay [1], in assay [2] and in assay [3] were at most 50 nM, at most 50 nM and 100 to 1000 nM, respectively.
Consider `C=CC(=O)Nc1cccc(Oc2nc(Nc3ccc(N4CCN(C5CCCCC5)CC4)cc3)nc3ccsc23)c1`, for which the concentration for 50% growth inhibition (GI50) in assay [1] was at most 50 nM; in assay [2], at most 50 nM; in assay [3], 100 to 1000 nM.
Turning to `C=CC(=O)Nc1cccc(Oc2nc(Nc3ccc(CN(C)C)cc3)nc3ccsc23)c1`, the GI50 was at most 50 nM in assay [1], at most 50 nM in assay [2] and 100 to 1000 nM in assay [3].
Regarding `C=CC(=O)Nc1cccc(Oc2nc(Nc3ccc(N4CCC(N5CCCC5)CC4)c(Cl)c3)nc3ccsc23)c1`, the GI50 in assay [1] and in assay [2] was at most 50 nM each time.
As for `C=CC(=O)Nc1cccc(Oc2nc(Nc3ccc(N4CCS(=O)(=O)CC4)cc3)nc3ccsc23)c1`, the GI50 in assay [1] and in assay [2] was at most 50 nM in each case.
`C=CC(=O)Nc1cccc(Oc2nc(Nc3ccc(CS(C)(=O)=O)cc3)nc3ccsc23)c1`: the GI50 in assay [1] and in assay [2] was at most 50 nM throughout.
For the compound `C=CC(=O)Nc1cccc(Oc2nc(Nc3ccc(C(=O)NCCN(C)C)cc3)nc3ccsc23)c1`, the GI50 in assay [1] was at most 50 nM; in assay [2], 100 to 1000 nM.
With `C=CC(=O)Nc1cccc(Oc2nc(Nc3ccc(OCCN4CCOCC4)cc3)nc3ccsc23)c1`, the GI50 in assay [1] and in assay [2] was at most 50 nM throughout.
As for `C=CC(=O)Nc1cccc(Oc2nc(Nc3ccc(CCN4CCN(S(C)(=O)=O)CC4)cc3)nc3ccsc23)c1`, the GI50 in assay [1] and in assay [2] was at most 50 nM each time.
On to `C=CC(=O)Nc1cccc(Oc2nc(Nc3ccc(N4CCN(C)CC4)c(Cl)c3)nc3ccsc23)c1`, for which the GI50 in assay [1] and in assay [2] was at most 50 nM throughout.
For the compound `C=CC(=O)Nc1cccc(Oc2nc(Nc3ccc(C[S+](C)[O-])cc3)nc3ccsc23)c1` (configuration not stated), the GI50 in assay [1] and in assay [2] was at most 50 nM each time.
For the compound `C=CC(=O)Nc1cccc(Oc2nc(Nc3ccc(C(=O)NC4CCN(C)CC4)c(Cl)c3)nc3ccsc23)c1`, the GI50 in assay [1] and in assay [2] was at most 50 nM throughout.
As to `C=CC(=O)Nc1cccc(Oc2nc(Nc3ccc(N4CCC(N5CCN(CC)CC5)CC4)cc3)nc3ccsc23)c1`, the GI50 is at most 50 nM in assay [1] and 100 to 1000 nM in assay [2].
On the same counts, the results for `C=CC(=O)Nc1cccc(Oc2nc(Nc3ccc(OCCN4CCN(C)CC4)c(F)c3)nc3ccsc23)c1` are at most 50 nM and at most 50 nM.
With `C=CC(=O)Nc1cccc(Oc2nc(Nc3ccc(N4CCOCC4)c(F)c3)nc3ccsc23)c1`, the 50% growth inhibitory concentration (GI50) in assay [1] and in assay [2] was at most 50 nM throughout.
As for `C=CC(=O)Nc1cccc(Oc2nc(Nc3ccc(N4CCN(S(=O)(=O)N(C)C)CC4)cc3)nc3ccsc23)c1`, the GI50 in assay [1] and in assay [2] was 50 to 100 nM each time.
As for `C=CC(=O)Nc1cccc(Oc2nc(Nc3ccc(OC4CCN(CC)CC4)cc3)nc3ccsc23)c1`, the GI50 in assay [1] and in assay [2] was at most 50 nM each time.
For the compound `C=CC(=O)Nc1cccc(Oc2nc(Nc3ccc(N4CCN(C)CC4)c(C)c3)nc3ccsc23)c1`, the GI50 in assay [1] and in assay [2] was at most 50 nM throughout.
With `C=CC(=O)Nc1cccc(Oc2nc(Nc3ccc(N4CCN(C)CC4)cc3)nc3ccoc23)c1`, the concentration for 50% growth inhibition (GI50) in assay [1] was at most 50 nM; in assay [2] it was at most 50 nM; in assay [3], 100 to 1000 nM.
On to `C=CC(=O)Nc1cccc(Oc2nc(Nc3ccc(N4CC(C)OC(C)C4)c(F)c3)nc3ccsc23)c1` (configuration not stated), for which the GI50 in assay [1] and in assay [2] was 50 to 100 nM each time.
For the compound `C=CC(=O)Nc1cccc(Oc2nc(Nc3ccc(N4CCC(N5CCCCC5)CC4)cc3)nc3ccsc23)c1`, the 50% growth inhibitory concentration (GI50) in assay [1] and in assay [2] was at most 50 nM in each case. The IC50 in assay [4] was in the range of 100 to 1000 nM.
Consider `C=CC(=O)Nc1cccc(Oc2nc(Nc3ccc(CN4CCC(N(C)C)CC4)cc3)nc3ccsc23)c1`, for which the GI50 in assay [1] and in assay [2] was at most 50 nM throughout.
Take `C=CC(=O)Nc1cccc(Nc2nc(Nc3ccc(N4CCN(C)CC4)cc3)nc3ccsc23)c1`: the GI50 in assay [1] and in assay [2] was at most 50 nM each time. Besides, in assay [4], the IC50 was in the range of 100 to 1000 nM.
Consider `C=CC(=O)Nc1cccc(Oc2nc(Nc3ccc(NC(=O)N4CCN(C)CC4)c(F)c3)nc3ccsc23)c1`, for which the GI50 in assay [1] was at most 50 nM; in assay [2], 50 to 100 nM.
The corresponding values for `C=CC(=O)Nc1cccc(Oc2nc(Nc3ccc(CCN4CCCCC4)cc3)nc3ccsc23)c1` are at most 50 nM and at most 50 nM.
Take `C=CC(=O)Nc1cccc(Oc2nc(Nc3ccc(C4CCN(C)CC4)c(F)c3)nc3ccoc23)c1`: the GI50 in assay [1] and in assay [2] was at most 50 nM in each case.
For the compound `C=CC(=O)Nc1cccc(Oc2nc(Nc3ccc(CN4CCN(CC5CC5)CC4)cc3)nc3ccsc23)c1`, the GI50 in assay [1] and in assay [2] was at most 50 nM in each case.
In the case of `C=CC(=O)Nc1cccc(Oc2nc(Nc3ccc(C(C)=O)cc3)nc3ccsc23)c1`, the GI50 in assay [1] and in assay [2] was at most 50 nM throughout.
As for `C=CC(=O)Nc1cccc(Oc2nc(Nc3ccc(C4CCN(C)CC4)c(F)c3)nc3ccsc23)c1`, the GI50 in assay [1] and in assay [2] was at most 50 nM in each case.
Regarding `C=CC(=O)Nc1cccc(Oc2nc(Nc3ccc(OCCN(C)C)c(F)c3)nc3ccsc23)c1`, the GI50 in assay [1] and in assay [2] was at most 50 nM each time.
`C=CC(=O)Nc1cccc(Oc2nc(Nc3ccc(N4CCN(C5CCN(C)CC5)CC4)cc3)nc3ccsc23)c1`: the GI50 in assay [1] and in assay [2] was at most 50 nM in each case.
On to `C=CC(=O)Nc1cccc(Nc2nc(Nc3ccc(OCCN(C)C)cc3)nc3ccsc23)c1`, for which the GI50 in assay [1] and in assay [2] was at most 50 nM each time.
As for `C=CC(=O)Nc1cccc(Nc2nc(Nc3ccc(N4CCN(C)CC4)c(F)c3)nc3ccsc23)c1`, the GI50 in assay [1] and in assay [2] was at most 50 nM in each case.
Consider `C=CC(=O)Nc1cccc(Oc2nc(Nc3ccc(CCN(C)C)cc3)nc3ccsc23)c1`, for which the GI50 in assay [1] and in assay [2] was at most 50 nM throughout.
As to `C=CC(=O)Nc1ccc(F)c(Nc2nc(Nc3ccc(N4CCN(C)CC4)cc3)nc3ccsc23)c1`, the GI50 in assay [1] is at most 50 nM; in assay [2], 50 to 100 nM.
For the compound `C=CC(=O)Nc1cccc(Nc2nc(Nc3ccc(OCCCN(C)C)cc3)nc3ccsc23)c1`, the GI50 in assay [1] and in assay [2] was 50 to 100 nM each time.
Turning to `C=CC(=O)Nc1cccc(Oc2nc(Nc3ccc(S(=O)(=O)NCCN(C)C)cc3)nc3ccsc23)c1`, the GI50 in assay [1] and in assay [2] was at most 50 nM in each case.
Turning to `C=CC(=O)Nc1cccc(Oc2nc(Nc3ccc(CN4CCN(CC)CC4)cc3)nc3ccsc23)c1`, the GI50 in assay [1] and in assay [2] was at most 50 nM in each case.
With `C=CC(=O)Nc1cccc(Oc2nc(Nc3ccc(N4CCN(CC(F)(F)F)CC4)cc3)nc3ccsc23)c1`, the 50% growth inhibitory concentration (GI50) in assay [1] was 50 to 100 nM; in assay [2] it was at most 50 nM.
On to `C=CC(=O)Nc1cccc(Oc2nc(Nc3ccc(N4CCN(C)CC4)cc3OC)nc3ccsc23)c1`, for which the GI50 in assay [1] and in assay [2] was 50 to 100 nM in each case.
On to `C=CC(=O)Nc1cccc(Oc2nc(Nc3ccc(N4CCN(CC)CC4)cc3)nc3ccsc23)c1`, for which the GI50 was at most 50 nM in assay [1], at most 50 nM in assay [2] and 100 to 1000 nM in assay [3].
For the compound `C=CC(=O)Nc1cccc(Oc2nc(Nc3ccc(N4CCN(C(C)C)CC4)cc3)nc3ccsc23)c1`, the values for the GI50 in assay [1], in assay [2] and in assay [3] were at most 50 nM, at most 50 nM and 100 to 1000 nM, respectively.
On to `C=CC(=O)Nc1cccc(Oc2nc(Nc3ccc(CN4CCN(C)CC4)nc3)nc3ccsc23)c1`, for which the values for the GI50 in assay [1] and in assay [2] were at most 50 nM and 50 to 100 nM, respectively.
The corresponding values for `C=CC(=O)Nc1cccc(Oc2nc(Nc3ccc(N4CCN(CCF)CC4)cc3)nc3ccsc23)c1` are at most 50 nM and 50 to 100 nM.
On the same counts, the results for `C=CC(=O)Nc1cccc(Oc2nc(Nc3ccc(CN4CCCC4)cc3)nc3ccsc23)c1` are at most 50 nM and at most 50 nM.
With `C=CC(=O)Nc1cccc(Oc2nc(Nc3ccc(C4(N)CC4)cc3)nc3ccsc23)c1`, the GI50 in assay [1] and in assay [2] was at most 50 nM in each case.
As for `C=CC(=O)Nc1cccc(Oc2nc(Nc3ccc(N4CCN(S(C)(=O)=O)CC4)c(F)c3)nc3ccsc23)c1`, the concentration for 50% growth inhibition (GI50) in assay [1] and in assay [2] was at most 50 nM in each case.
As to `C=CC(=O)Nc1cccc(Oc2nc(Nc3ccc(N4CCC(N5CCCC5)CC4)cc3)nc3ccsc23)c1`, the GI50 in assay [1] and in assay [2] was at most 50 nM throughout.

The term GI50 denotes the concentration that inhibits growth by half. What is called IC50 is the concentration at which inhibition is half-maximal. Read a low IC50 as greater potency.
